Test results published in patent US20160304547A1, “MACROLIDE COMPOUND” (PULIKE BIOLOGICAL ENGINEERING, INC, priority 2013, published 2016).
In brackets after ≈: the same amount, converted by molar mass.

Legend:
[1] = orally intoxicated mice; cited from earlier work
[2] = system: Streptococcus pneumoniae CMCC 31203; assay: In vivo antibacterial test, survival of infected BALB/c mice; conditions: BALB/c mice infected i.p. with Streptococcus pneumoniae; for responders at 5 mg/kg: CMCC31203, sc, 168 h, 5 mg per kg s.c. via neck for 3 consecutive days, deaths recorded until the seventh day, read-out: Animal survival rate
[3] = Acute toxicity test of compound Syzx-24, single gastric perfusion; conditions: Balb/c mice, 2000 mg/kg once by gastric perfusion, 6 h after administration
[4] = system: Pasteurella multocida CVCC399; assay: MIC by mini broth dilution technique (in vitro susceptibility); type: cell-based; conditions: Pasteurella multocida CVCC399; broth dilution; read-out: MIC values Pasteurella multocida CVCC399
Method: (§1) in vitro tests of susceptibility of the compounds according to the present disclosure against bacterial strains commonly used in laboratories. In accordance with the Performance Standards for Antimicrobial Disk Susceptibility Tests: Approved Standard published by the US National Committee for Clinical Laboratory Standards, the antibactetial activities of compounds prepared according to examples 5 to 187 were tested. The MICs (minimum inhibitory concentration) of the medicaments prepared according to the examples on the following bacterial strains were measured through mini broth dilution technique. Staphylococcus aureus CVCC26003, Streptococcus equines CVCC556. Actinobacillus pleuropneumoniae CVCC262, Haemophilus parasuis, and Pasteurella multocida CVCC399, which were purchased from the Control Institute of Veterinary Bioproducts and Pharmaceuticals, China. Liquid culture medium: […] Solid culture medium: […] The strains were taken out of a regrigerator at −20° C. to be revived, and were spreaded by streaking on the solid culture medium with an inoculating loop. The inoculated culture medium was cultured at 35° C. in a constant temperature incubator for 20 h. Monoclonal antibodies were selected from a well-grown culture plate and streaked on the solid culture medium. The inoculated culture medium was cultured at 35° C. in the constant temperature incubator for 20 h. […] A 96-well plate was used, and 100 μl of DMSO was added into each of wells 2 to 11, and 200 μl of ready-prepared medicament solution was added into the 1st well, 100 μl of the medicament solution was extracted from the 1st well and added into the 2nd well. Double dilution was performed until the 11th well, thereby forming 11 gradients. In this case, compound of parent plate was prepared. 3 μl of double diluted medicament solution was extracted with a 12-channel pipettor and added into wells 1-11 of a new disposable 96-well culture plate. The 12th well thereof is a controll well. For each medicament, there are two adjacent rows which are parallel. The transferred compound plate was reserved for later use. […] The dilution ratio was recorded, and the bacterial liquid for the tests was diluted according to the recorded dilution ratio. Subsequently, the bacterial suspension and the liquid culture medium were diluted in the proportion of 1:200. The diluted solution was reserved for later use.

[5] = system: Actinobacillus pleuropneumoniae CVCC262; assay: as above; type: cell-based; conditions: Actinobacillus pleuropneumoniae CVCC262; broth dilution; read-out: MIC values Actinobacillus pleuropneumoniae CVCC262
Method: as §1

[6] = system: Streptococcus equines CVCC556; assay: as above; type: cell-based; conditions: Streptococcus equines CVCC556; broth dilution; read-out: MIC values Streptococcus equines CVCC556
Method: as §1

Haemophilus parasuis = assay: as above; type: cell-based; conditions: Glaesserella parasuis; Haemophilus parasuis; broth dilution; read-out: MIC values Haemophilus parasuis
Method: as §1

[7] = system: Staphylococcus aureus CVCC26003; assay: as above; type: cell-based; conditions: Staphylococcus aureus CVCC26003; broth dilution; read-out: MIC values Staphylococcus aureus CVCC26003
Method: in vitro tests of susceptibility of the compounds according to the present disclosure against bacterial strains commonly used in laboratories. In accordance with the Performance Standards for Antimicrobial Disk Susceptibility Tests: Approved Standard published by the US National Committee for Clinical Laboratory Standards, the antibactetial activities of compounds prepared according to examples 5 to 187 were tested. The MICs (minimum inhibitory concentration) of the medicaments prepared according to the examples on the following bacterial strains were measured through mini broth dilution technique. Staphylococcus aureus CVCC26003, Streptococcus equines CVCC556. Actinobacillus pleuropneumoniae CVCC262, Haemophilus parasuis, and Pasteurella multocida CVCC399, which were purchased from the Control Institute of Veterinary Bioproducts and Pharmaceuticals, China. Liquid culture medium: CAMHB. […] Solid culture medium: NINA prepared according to the specification of the final product. The strains were taken out of a regrigerator at −20° C. to be revived, and were spreaded by streaking on the solid culture medium with an inoculating loop. The inoculated culture medium was cultured at 35° C. in a constant temperature incubator for 20 h. Monoclonal antibodies were selected from a well-grown culture plate and streaked on the solid culture medium. The inoculated culture medium was cultured at 35° C. in the constant temperature incubator for 20 h. […] A 96-well plate was used, and 100 μl of DMSO was added into each of wells 2 to 11, and 200 μl of ready-prepared medicament solution was added into the 1st well, 100 μl of the medicament solution was extracted from the 1st well and added into the 2nd well. Double dilution was performed until the 11th well, thereby forming 11 gradients. In this case, compound of parent plate was prepared. 3 μl of double diluted medicament solution was extracted with a 12-channel pipettor and added into wells 1-11 of a new disposable 96-well culture plate. The 12th well thereof is a controll well. For each medicament, there are two adjacent rows which are parallel. The transferred compound plate was reserved for later use. […] The dilution ratio was recorded, and the bacterial liquid for the tests was diluted according to the recorded dilution ratio. Subsequently, the bacterial suspension and the liquid culture medium were diluted in the proportion of 1:200. The diluted solution was reserved for later use.

SMILES | minimum lethal dose [1] | Animal survival rate ([2]; Tulathromycin control group, 10 mg per kg of body weight after infection, until the seventh day) | Death rate [3] | Number of dead animals/total number of animals [3] | MIC [4] | MIC [5] | MIC [6] | MIC (Haemophilus parasuis) | MIC [7] | responders at 5 mg/kg [2]
CCCNC[C@]1(O)[C@H](C)O[C@@H](O[C@H]2[C@H](C)[C@@H](O[C@@H]3O[C@H](C)C[C@H](N(C)C)[C@H]3O)[C@](C)(O)C[C@@H](C)CN[C@H](C)[C@@H](O)[C@](C)(O)[C@@H](CC)OC(=O)[C@@H]2C)C[C@@]1(C)OC [Tulathromycin, reference compound] | higher than 2000 mg/kg.d-1 | 70% (7/10) | 75% |  |  |  |  |  |  | 
CC[C@H]1OC(=O)[C@H](C)[C@@H](O[C@H]2C[C@@](C)(OC)[C@](O)(CN(C)C)[C@H](C)O2)[C@H](C)[C@@H](O[C@@H]2O[C@H](C)C[C@H](N(C)C)[C@H]2O)[C@](C)(O)C[C@@H](C)NC[C@H](C)[C@@H](O)[C@]1(C)O [syzx-24] |  |  | 0% | 0/4 |  |  |  |  |  | 
CC[C@@H]1OC(=O)[C@H](C)[C@H](OC2C[C@@](C)(OC)[C@](O)(CNCCCOC)[C@H](C)O2)[C@@H](C)[C@@H](O[C@@H]2O[C@H](C)C[C@H](N(C)C)[C@H]2O)[C@](C)(O)C[C@@H](C)NC[C@@H](C)[C@H](O)[C@]1(C)O (some centres unmarked) [syzx-66] |  |  |  |  | ≤ 0.25 µg/mL | 8 µg/mL (≈ 9.57 µM) | 0.5 µg/mL (≈ 0.598 µM) | ≤ 0.25 µg/mL | 1 µg/mL (≈ 1.2 µM) | 80%
CC[C@@H]1OC(=O)[C@H](C)[C@H](OC2C[C@@](C)(OC)[C@](O)(CNCC3CCCCC3)[C@H](C)O2)[C@@H](C)[C@@H](O[C@@H]2O[C@H](C)C[C@H](N(C)C)[C@H]2O)[C@](C)(O)C[C@@H](C)NC[C@@H](C)[C@H](O)[C@]1(C)O (some centres unmarked) [syzx-67] |  |  |  |  | ≤ 0.25 µg/mL | 0.5 µg/mL (≈ 0.581 µM) | ≤ 0.25 µg/mL | ≤ 0.25 µg/mL | ≤ 0.25 µg/mL | 70%
CCCN1C[C@@H](C)[C@@H](O)[C@](C)(O)[C@H](CC)OC(=O)[C@H](C)[C@H](OC2C[C@@](C)(OC)[C@](O)(CN(C)CC)[C@H](C)O2)[C@H](C)[C@@H](O[C@@H]2O[C@H](C)C[C@H](N(C)C)[C@H]2O)[C@](C)(O)C[C@H]1C (some centres unmarked) [syzx-213] |  |  |  |  | 0.25 µg/mL (≈ 0.295 µM) | 0.25 µg/mL (≈ 0.295 µM) | 0.25 µg/mL (≈ 0.295 µM) | 0.25 µg/mL (≈ 0.295 µM) | 0.25 µg/mL (≈ 0.295 µM) | 90%
